Test results as given in PMC6318274, “Lattice engineering enables definition of molecular features allowing for potent small-molecule inhibition of HIV-1 entry” (Nature Communications, 2019).
Entries after “also recorded” stand apart in the source; their conditions may differ. Where two headings read alike, the source gives them in different places.

Key:
[1] = tested on: HIV-1 Env-pseudoviruses (30-strain panel); test: Neutralization assay, cross-clade 30-strain panel (Env-pseudoviruses, TZM-bl target cells); format: cell-based; conditions: for IC50: Human immunodeficiency virus 1, TZM-bl; for number of viruses neutralized: of the 30 viruses
Description: Neutralization was measured using single-round-of-infection HIV-1 Env-pseudoviruses and TZM-bl target cells (ARP Cat No. #8129)[44],[45]. Compounds were prepared at 400 μM with 4% DMSO (dimethyl sulfoxide) in PBS (phosphate-buffered saline) and diluted 20 times as the starting concentration for serial dilution in the neutralization assays. […] After incubation at 37 °C for 2 days, infection of target cells was measured by luciferase activity. Neutralization curves were fit by nonlinear regression using a five-parameter hill slope equation[45].

[2] = tested on: HIV-1 strain NL4-3; test: Entry inhibition of laboratory-adapted HIV-1 strain NL4-3; format: cell-based
[3] = tested on: TZM-bl cells; test: Cytotoxicity in the neutralization assay (TZM-bl cells + drugs); conditions: highest concentration (20 μM)
[4] = tested on: TZM-bl cells; set-up: method as in literature; conditions: not measured here; ref literature; cited from earlier work
[5] = 242-14 (Clade AG), read-out: IC50
[6] = 247-23 (Clade D), read-out: IC50
[7] = 0330.v4.c3 (Clade A), read-out: IC50
[8] = 7165.18 (Clade B), read-out: IC50
[9] = BJOX028000.10.3 (Clade AE), read-out: IC50
[10] = BL01.DG (Clade B), read-out: IC50
[11] = C4118.09 (Clade AE), read-out: IC50
[12] = CAP210.E8 (Clade C), read-out: IC50
[13] = CH119.10 (Clade BC), read-out: IC50
[14] = CNE10 (Clade B), read-out: IC50
[15] = CNE20 (Clade BC), read-out: IC50
[16] = CNE56 (Clade AE), read-out: IC50
[17] = DJ263.8 (Clade AG), read-out: IC50
[18] = DU156.12 (Clade C), read-out: IC50
[19] = Geomean, 30-strain panel, read-out: Geometric mean IC50
[20] = KER2008.12 (Clade A), read-out: IC50
[21] = MB201.A1 (Clade A), read-out: IC50
[22] = NKU3006.ec1 (Clade D), read-out: IC50
[23] = P0402.c2.11 (Clade G), read-out: IC50
[24] = PVO.04 (Clade B), read-out: IC50
[25] = R3265.c6 (Clade AE), read-out: IC50
[26] = REJO.67 (Clade B), read-out: IC50
[27] = T253-11 (Clade AG), read-out: IC50
[28] = T280-5 (Clade AG), read-out: IC50
[29] = ZM106.9 (Clade C), read-out: IC50

Row | Structure (SMILES) | IC50 [1, 5] | IC50 [1, 6] | IC50 [1, 7] | IC50 ([1]; 426c (Clade C), read-out: IC50) | IC50 [1, 8] | IC50 ([1]; B41 (Clade B), read-out: IC50) | IC50 [1, 9] | IC50 [1, 10] | IC50 [1, 11] | IC50 [1, 12] | IC50 [1, 13] | IC50 [1, 14] | IC50 [1, 15] | IC50 [1, 16] | IC50 [1, 17] | IC50 [1, 18] | IC50 [1, 19] | IC50 [1, 20] | IC50 [1, 21] | IC50 [1, 22] | also measured
1 | O=C(c1ccsc1)N1CCN(C(=O)C2(c3cccc(Cl)c3)CC2)CC1 [Compound 484, reference compound] | > 20000 nM | > 20000 nM | > 20000 nM | 13400 nM | > 20000 nM | 1730 nM | > 20000 nM | > 20000 nM | > 20000 nM | > 20000 nM | > 20000 nM | 1940 nM | > 20000 nM | > 20000 nM | 2780 nM | 7690 nM | > 12300 nM | > 20000 nM | > 20000 nM | 1650 nM | IC50 [1, 23]: > 20000 nM; IC50 [1, 24]: 7870 nM; IC50 [1, 25]: > 20000 nM; IC50 [1, 26]: > 20000 nM; IC50 [1, 27]: 3350 nM; IC50 [1, 28]: 11900 nM; IC50 [1, 29]: > 20000 nM; IC50 ([1]; […], read-out: IC50): 13600 nM; IC50 ([1]; read-out: IC50): > 20000 nM; number of viruses neutralized [1]: 11
2 | COc1cnc(-c2csc(CN(C)CCCN(C)C)n2)c2[nH]cc(C(=O)C(=O)N3CCC(=C(C#N)c4ccccc4)CC3)c12 [BMS-814508] | 15 nM | 16 nM | 96 nM | 36 nM | 491 nM | 1 nM | > 4000 nM | 2810 nM | 2000 nM | 400 nM | 4 nM | 4 nM | 143 nM | > 4000 nM | < 0.3 nM | 20 nM | > 51 nM | 165 nM | 192 nM | 1 nM | EC50 ([2]; Human immunodeficiency virus 1, NL43, NL4-3): 0.495 ± 0.069 nM; fold more potent than BMS-626529 ([2]; NL4-3 EC50): 4 fold; IC50 [1, 23]: 12 nM; IC50 [1, 24]: 2 nM; IC50 [1, 25]: 1060 nM; IC50 [1, 26]: 2730 nM; IC50 [1, 27]: < 0.3 nM; IC50 [1, 28]: 0.8 nM; IC50 [1, 29]: 31 nM; IC50 ([1]; read-out: IC50): 8 nM; number of viruses neutralized [1]: 28; Cytotoxicity [3]: showed cytotoxicity; also recorded: Cytotoxicity was observed
3 | COc1ccnc2[nH]cc(C(=O)C(=O)N3CCN(C(=O)c4ccccc4)C[C@H]3C)c12 [BMS-378806, 4-benzoyl-1-[(4-methoxy-1H-pyrrolo[2,3-b]pyridin-3-yl)oxoacetyl]-2-(R)-methylpiperazine, reference compound] | – | – | – | – | – | – | – | – | – | – | – | – | – | – | – | – | – | – | – | – | IC50 ([1]; read-out: Geometric mean IC50): > 912 nM; Cytotoxicity [4]: lack of cytotoxicity
4 | O=C(C(=O)N1CCN(C(=O)c2ccccc2)CC1)c1c[nH]c2c(F)ccc(Br)c12 [BMS-386150] | 7020 nM | > 20000 nM | > 20000 nM | 6620 nM | > 20000 nM | 117 nM | > 20000 nM | > 20000 nM | > 20000 nM | > 20000 nM | 13700 nM | 509 nM | > 20000 nM | > 20000 nM | > 20000 nM | 1350 nM | > 6720 nM | > 20000 nM | > 20000 nM | 256 nM | fold lower neutralization potency than BMS-378806 ([1]; 30-strain panel): ~ 7 fold; IC50 [1, 23]: > 20000 nM; IC50 [1, 24]: 664 nM; IC50 [1, 25]: > 20000 nM; IC50 [1, 26]: > 20000 nM; IC50 [1, 27]: 541 nM; IC50 [1, 28]: 2020 nM; IC50 [1, 29]: 10800 nM; IC50 ([1]; read-out: IC50): 4670 nM
